Counter-ions that a name gives are not always drawn.
Biological target: T1, recombinant human Cathepsin K (Homo sapiens, UniProt P43235)
T1 sequence (P43235 115-329): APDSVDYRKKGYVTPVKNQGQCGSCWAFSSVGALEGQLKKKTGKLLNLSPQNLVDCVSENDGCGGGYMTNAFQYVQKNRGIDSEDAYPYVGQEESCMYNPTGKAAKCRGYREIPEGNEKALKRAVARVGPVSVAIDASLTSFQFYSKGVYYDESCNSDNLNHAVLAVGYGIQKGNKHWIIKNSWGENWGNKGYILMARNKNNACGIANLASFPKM
Assay: Cathepsin K activity: inhibition of recombinant human Cathepsin K (Z-Phe-Arg-AMC fluorescence)
Assay type: biochemical
Settings: substrate Z-Phe-Arg-AMC, pH 5.5, fluorescence at 10 minutes, read-out: pIC50 (negative logarithm of the IC50 concentration) for inhibition of human cathepsin K (converted)
Experimental: To a 384 well microtitre plate is added 5 μl of a 100 μM solution of test compound in assay buffer (100 mM sodium acetate pH 5.5, 5 mM EDTA, 5 mM dithiothreitol) with 10% dimethylsulfoxide (DMSO), plus 10 μl of 100 μM solution of the substratre Z-Phe-Arg-AMC (Bachem; 7-amido-coumarine derivative of the dipeptide N-benzyloxycarbonyl-Phe-Arg-OH) in assay buffer and 25 μl of assay buffer. 10 μl of a 1 mg/l solution of activated recombinant human cathepsin K, in assay buffer, is then added to the well, yielding a final inhibitor concentration of 10 μM. Enzyme activity is determined by measuring the fluorescence of the liberated aminomethylcoumarin at […] using 390 nm excitation, at 10 minutes. Percentage enzyme activity is calculated by comparison of this activity to that of a solution containing no inhibitor. Compounds are subsequently subjected to a dose response curve analysis in order to determine IC50 values for active compounds (where IC50 is the concentration of test compound causing 50% inhibition of the enzymatic activity).
Compounds of the invention typically have a pIC50 (negative logarithm of the IC50 concentration) for inhibition of human cathepsin K of more than 6, preferably more than 7 and most preferably a pIC50 of more than 8, such as for the compounds of Examples 1, 2a, 2b, 3, 5, 6, 8, 12, 14, 13, 16k, 16n, 16o, 17, 22a, 22b, 22c

SMILES	IC50
CN1CCN(c2cc(-c3cccc(C(F)(F)F)c3)nc(C#N)n2)CC1(C)C [Example 12, 4-(3,3,4-Trimethyl-piperazin-1-yl)-6-(3-trifluoromethyl-phenyl)-pyrimidine-2-carbonitrile]	< 10 nM
N#Cc1nc(-c2cccc(C(F)(F)F)c2)cc(N2CCN(CC(N)=O)CC2)n1 [Example 2b, 4-(4-carbamoylmethyl-piperazin-1-yl)-6-(3-trifluoromethyl-phenyl)-pyrimidine-2-carbonitrile]	< 10 nM
COCCN1CCN(c2cc(-c3cccc(C(F)(F)F)c3)nc(C#N)n2)CC1 [Example 2a, 4-[4-(2-Methoxy-ethyl)-piperazin-1-yl]-6-(3-trifluoromethy-phenyl)-pyrimidine-2-carbonitrile]	< 10 nM
CN1CCC(N(C)c2cc(-c3cccc(C(F)(F)F)c3)nc(C#N)n2)CC1 [Example 16k, 4-[Methyl-(1-methyl-piperidin-4-yl)-amino]-6-(3-trifluoromethyl-phenyl)-pyrimidine-2-carbonitrile trifluoroacetic acid salt]	< 10 nM
N#Cc1nc(-c2cccc(C(F)(F)F)c2)cc(N2CCN(CCC(=O)O)CC2)n1 [Example 5, 4-[4-(2-carboxy-ethyl)-piperazin-1-yl]-6-(3-trifluoromethyl-phenyl)-pyrimidine-2-carbonitrile trifluoroacetic acid salt]	< 10 nM
COc1ccc(-c2cc(N3CCNCC3)nc(C#N)n2)cc1C(F)(F)F [Example 17, 4-(4-Methoxy-3-trifluoromethyl-phenyl)-6-piperazin-1-yl-pyrimidine-2-carbonitrile]	< 10 nM
N#Cc1nc(-c2cccc(C(F)(F)F)c2)cc(N2CCNCC2)n1 [Example 1, 4-(Piperazin-1-y)l-6-(3-trifluoromethylphenyl)-pyrimidine-2-carbonitrile]	< 10 nM
N#Cc1nc(-c2cccc(C(F)(F)F)c2)cc(N2CCN(CC3CC3)CC2)n1 [Example 6, 4-(4-Cyclopropylmethyl-piperazin-1-yl)-6-(trifluoromethyl-phenyl)-pyrimidine-2-carbonitrile trifluoroacetic acid salt]	< 10 nM
N#Cc1nc(-c2cccc(C(F)(F)F)c2)cc(N2CCN(C3CC3)CC2)n1 [Example 8, 4-(4-Cyclopropyl-piperazin-1-yl)-6-(trifluoromethyl-phenyl)-pyrimidine-2-carbonitrile hydrochloric acid salt]	< 10 nM

Further lines, results first:

IC50	SMILES
< 10 nM	N#Cc1nc(OCCN2CCOCC2)cc(-c2cccc(C(F)(F)F)c2)n1 [Example 22b, 4-(2-Morpholin-4-yl-ethoxy)-6-(3-trifluoromethyl-phenyl)-pyrimidine-2-carbonitrile]
< 10 nM	CCN(CC)CCOc1cc(-c2cccc(C(F)(F)F)c2)nc(C#N)n1 [Example 22c, 4-(2-Diethylamino-ethoxy)-6-(3-trifluoromethyl-phenyl)-pyrimidine-2-carbonitrile]
< 10 nM	N#Cc1nc(NCC(=O)O)cc(-c2cccc(C(F)(F)F)c2)n1 [Example 16o, 4-(Carboxymethyl-amino)-6-(3-trifluoromethyl-phenyl)-pyrimidine-2-carbonitrile]
< 10 nM	CN1CCCN(c2cc(-c3cccc(C(F)(F)F)c3)nc(C#N)n2)CC1 [Example 14, 4-(4-Methyl-[1,4]diazepan-1-yl)-6-(3-trifluoromethyl-phenyl)-pyrimidine-2-carbonitrile]
< 10 nM	N#Cc1nc(-c2cccc(C(F)(F)F)c2)cc(N2CCCNCC2)n1 [Example 13, 4-[1,4]Diazepan-1-yl-6-(3-trifluoromethylphenyl)-pyrimidine-2-carbonitrile]
< 10 nM	N#Cc1nc(NCc2nnn[nH]2)cc(-c2cccc(C(F)(F)F)c2)n1 [Example 16n, 4-[(1H-Tetrazol-5-ylmethyl)-amino]-6-(3-trifluoromethyl-phenyl)-pyrimidine-2-carbonitrile]
< 10 nM	N#Cc1nc(OCCN2CCCCC2)cc(-c2cccc(C(F)(F)F)c2)n1 [Example 22a, 4-(2-Piperidin-1-yl-ethoxy)-6-(3-trifluoromethyl-phenyl)-pyrimidine-2-carbonitrile]

From US7326715B2, “4-Phenyl-6-substituted-pyrimidine-2-carbonitrile derivatives” (N.V. Organon, priority 2005, dated 2008)
